Data published in patent publication US20120114636A1, “LOW MOLECULAR WEIGHT CYCLIN E (LMW-E) AS A BIOMARKER FOR PERSONALIZATION OF CANCER THERAPIES” (The Board of Regents of the University of Texas System, priority 2009, published 2012).

Key:
Type in all cases: cell-based, human
[1] = test system: CDK2-associated kinase activity in MCF-7/Ac1 cells; assay: CDK2-associated kinase assay (histone H1); details: with 25 nM AD, 3 days
Method: (§1) FIG. 28. Effect of increasing concentrations of letrozole in the presence of 25 nM AD on CDK2 kinase activity, activated CDK2 and Rb phosphorylation of MCF7/Ac1 human breast cancer cells. MCF-7/Ac1 cells were treated with the indicated concentrations of letrozole and AD for 3 days. CDK2 kinase assays were performed by immunoprecipitating equal amounts of cell lysate (250 μg) with monoclonal antibodies to CDK2 (D12, sc-6248) coupled to protein G beads, using histone H1 as substrate. […] The same cell lysates were subjected to western blot analysis (50 μg of protein) with the indicated antibodies.

[2] = test system: CDK2 kinase activity in MCF-7/Ac1 cells; assay: CDK2 kinase assay in LacZ or cyclin E-T1 adenovirus-infected cells; details: 1 μM letrozole
Method: MCF-7/Ac1 cells were cultured in IMEM with 10% charcoal-stripped serum medium (CSSM) without phenol red and with 600 μg/ml of G418 for 4 days before plating. Plates were then infected with LacZ (4000 m.o.i) or increasing concentration of cyclin E-T1 adenoviruses 24 hours before drug treatment. Cells were then left untreated (E2W, estrogen withdrawal) or treated with 25 nM AD (AD) or treated with 25 nM AD and 1 μM letrozole (AD+Let) and collected 3 days later for CDK2 kinase activity. CDK2 kinase assays were performed by immunoprecipitating equal amounts of cell lysate (250 μg) with monoclonal antibodies to CDK2 (D12, sc-6248) coupled to protein G beads, using histone H1 as substrate. The bar graph represents the densitometric values of the phosphorylated histone H1 substrate.

MCF-7/Ac1 cells = assay: Western blot of CDK2, phospho-CDK2, cyclin E, pRb
Method: as §1
Western blot analysis. Cell lysates were prepared and subjected to western blot analysis as described previously (Akli et al., 2004). Briefly, 50 μg of protein were subjected to electrophoresis on SDS-PAGE and transferred to Immobilon P overnight at 4° C. at […] constant voltage. The blots were blocked overnight at 4° C. in BLOTTO [5% nonfat dried milk in 20 mM Tris, 137 mM NaCl, and 0.05% Tween (pH 7.6)]. After being washed, the blots were incubated in primary antibodies for 3 h. Primary antibodies used were cyclin E (HE-12; Santa Cruz Biotechnology), p21 (0P64; Oncogene Research Products, Boston, Mass.), p27 (K25020; BD Biosciences-Transduction Laboratories, Lexington, Ky.), cyclin-dependent kinase 2 (CDK2; Transduction Laboratories), and actin (Chemicon International, Inc., Temecula, Calif.). Blots were then incubated with goat anti-mouse or anti-rabbit immunoglobulin-horseradish peroxidase conjugate at a dilution of 1:5000 in BLOTTO for 1 h and finally washed and developed by using the Renaissance chemiluminescence system as directed by the manufacturer (Perkin-Elmer Life Sciences, Inc., Boston, Mass.). Western blots were quantitated by densitometric analysis using IPLab Gel software (Scientific Image Processing, Vienna, Va.). Densitometric values of actin were used to standardize for equal protein loading. These values were introduced into the software Graph-Pad Prism version 4.0 (GraphPad Software, Inc., San Diego, Calif.) for statistical analysis.
MCF-7/Ac1 cells were treated with the indicated concentrations of letrozole and AD for 3 days. Cyclin E kinase assays were performed by immunoprecipitating equal amounts of cell lysate (250 μg) with monoclonal antibodies to cyclin E coupled to protein A beads, using histone H1 as substrate. […] The same cell lysates were subjected to western blot analysis (50 μg of protein) with the indicated antibodies. […] The same cell lysates were first immunoprecipitated with cyclin E followed by western blot for p21 and p27. […] The same cell lysates were first immunoprecipitated with CDK2 followed by western blot for p21 and p27. The levels of proteins were measured by densitometric scanning of the corresponding bands and normalized using actin values. The values indicated at the bottom were compared to the values obtained with untreated cells.

## N#Cc1ccc(C(c2ccc(C#N)cc2)n2cncn2)cc1 [letrozole]
[1]
  concentration that blocked the AD-induced increase in CDK2-associated kinase activity: ≤ 0.125 µM
[2]; LMW cyclin E (T1) expressing cells, any m.o.i
  block of CDK2 kinase activity: cannot block
[2]; LacZ expressing cells
  block of AD-induced increase in CDK2 kinase activity: completely blocks
MCF-7/Ac1 cells; 0.5 μM letrozole with 25 nM AD
  cyclin E protein levels: slightly decreased
MCF-7/Ac1 cells; increasing letrozole with 25 nM AD
  effect on AD-induced increase in CDK2 protein levels: blocked the increase in CDK2 protein levels in a dose dependent manner
MCF-7/Ac1 cells; letrozole with 25 nM AD
  phosphorylation of endogenous CDK2 substrate pRb: decreased phosphorylation
